≈ marks a conversion by molar mass, not a printed value. Where two headings read alike, the source gives them in different places.
How the values were obtained:
Assay in all cases: Susceptibility testing (MIC, modified NCCLS method)
[1] = system: Staphylococcus aureus; format: cell-based; details: Staphylococcus aureus
Description: (§1) The NCCLS (National Committee for Clinical Laboratory Standards) method to determine MIC's of antimicrobial compounds was modified for high-throughput screening. All stocks of tested compounds were prepared in either water or in dimethylsulfoxide (DMSO), depending on the solubility. […] Briefly 20 2-fold serial dilutions of testing compounds from the highest concentration were made in a 384-well microtiter plate. Each well was inoculated with testing bacteria in broth to a final concentration of approximately 1-1.5×10^6 cells/ml. Bacterial growth was determined by the increase of optical density at 600 nm using a microplate reader (Tecan SpectraFluor Plus).

[2] = system: E. faecalis; format: cell-based, Enterococcus faecalis; details: Enterococcus faecalis, read-out: GM* MIC (geometric mean)
Description: as §1

[3] = system: S. epidermidis; format: cell-based, Staphylococcus epidermidis; details: for MIC: Staphylococcus epidermidis
Description: as §1

[4] = system: E. faecium; format: cell-based, Enterococcus faecium; details: Enterococcus faecium, read-out: GM* MIC (geometric mean)
Description: as §1

[5] = system: Vancomycin-resistant E. faecalis or E. faecium; format: cell-based, Enterococcus faecalis, Enterococcus faecium
Description: as §1

Compound CN[C@H](CC(C)C)C(=O)N[C@H]1C(=O)N[C@@H](CC(N)=O)C(=O)N[C@H]2C(=O)N[C@H]3C(=O)N[C@H](C(=O)N[C@H](C(=O)O)c4cc(O)cc(O)c4-c4cc3ccc4O)[C@H](O)c3ccc(c(Cl)c3)Oc3cc2cc(c3O[C@@H]2O[C@H](CO)[C@@H](O)[C@H](O)[C@H]2O[C@H]2C[C@](C)(N)[C@H](O)[C@H](C)O2)Oc2ccc(cc2Cl)[C@H]1O [Vancomycin, vancomycin, reference compound] has an MIC ([1]; ATCC11632, ATCC 11632, methicillin-sensitive, β-lactamase Neg./Pos.) of 0.25 µg/mL (≈ 0.173 µM), an MIC ([1]; ATCC13301, ATCC 13301, methicillin-sensitive, β-lactamase Positive) of 0.25 µg/mL (≈ 0.173 µM) and an MIC ([1]; ATCC14154, ATCC 14154, methicillin-sensitive, β-lactamase Positive) of 0.5 µg/mL (≈ 0.345 µM). The MIC ([1]; ATCC33591, ATCC 33591, methicillin-resistant, β-lactamase Positive) was 0.25 µg/mL (≈ 0.173 µM), the MIC ([1]; ATCC33592, ATCC 33592, methicillin-sensitive, β-lactamase Positive) was 0.5 µg/mL (≈ 0.345 µM) and the MIC ([1]; ATCC33593, ATCC 33593, methicillin-resistant, β-lactamase Positive) was 0.5 µg/mL (≈ 0.345 µM). For the same compound, the MIC ([1]; ATCC33594, ATCC 33594, methicillin-sensitive, β-lactamase Positive) was 0.5 µg/mL (≈ 0.345 µM), the MIC ([1]; ATCC43300, ATCC 43300, methicillin-sensitive, β-lactamase Neg./Pos.) was 0.5 µg/mL (≈ 0.345 µM) and the MIC ([1]; ATCC700260, ATCC 700260, methicillin-sensitive, β-lactamase Positive) was 1 µg/mL (≈ 0.69 µM). The MIC ([1]; ATCC700698, ATCC 700698, methicillin-resistant, β-lactamase Negative) was 2 µg/mL (≈ 1.38 µM), the MIC ([1]; ATCC700699, ATCC 700699, methicillin-resistant, β-lactamase Negative) was 4 µg/mL (≈ 2.76 µM) and the MIC ([1]; ATCC700787, ATCC 700787, methicillin-resistant, β-lactamase Positive) was 8 µg/mL (≈ 5.52 µM). It also gave an MIC ([1]; ATCC700788, ATCC 700788, methicillin-resistant, β-lactamase Positive) of 2 µg/mL (≈ 1.38 µM), an MIC ([1]; ATCC700789, ATCC 700789, methicillin-resistant, β-lactamase Positive) of 2 µg/mL (≈ 1.38 µM) and an MIC ([1]; MRSA, read-out: Geometric mean of MIC, MRSA tested (7)) of 1.64 µg/mL (≈ 1.13 µM). The MIC ([1]; MSSA, read-out: Geometric mean of MIC, MSSA tested (7)) was 0.36 µg/mL (≈ 0.248 µM), the MIC ([1]; read-out: Geometric mean of MIC, S. aureus (14)) was 0.86 µg/mL (≈ 0.593 µM) and the MIC ([1]; read-out: Geometric mean of MIC, S. aureus β-lactamase negative (2)) was 2.83 µg/mL (≈ 1.95 µM). For the same compound, the MIC ([1]; read-out: Geometric mean of MIC, S. aureus β-lactamase positive (12)) was 0.94 µg/mL (≈ 0.649 µM), the MIC [2] was > 6.41 µg/mL and the MIC range ([3]; S. epidermidis (5)) was 1 to 2 µg/mL. The MIC ([3]; read-out: GM* MIC (geometric mean)) was 1.74 µg/mL (≈ 1.2 µM), the MIC ([3]; read-out: MICs of heterogeneous vancomycin resistant strains) was 2 µg/mL (≈ 1.38 µM) and the MIC [4] was > 3.49 µg/mL. The MIC ([5]; Enterococcus, VRE, read-out: GM* MIC (geometric mean)) was > 47.4 µg/mL and the “GM* MIC (geometric mean)” value ([5]; VRE (5)) was >47.4 µg/mL.
